Test results reported in patent publication US9302999B2, “Substituted triazoles as herbicides” (E. I. DU PONT DE NEMOURS AND COMPANY, priority 2012, dated 2016).

How the values were obtained:
Type in all cases: in vivo
[1] = system: crabgrass, Brazil (Brazilian crabgrass, Digitaria horizontalis); experiment: Test F pre-/postemergence: crabgrass, Brazil
Method in brief: (§1)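 Seeds were sown in silt loam soil and sprayed preemergence with test chemical in a non-phytotoxic solvent mixture containing surfactant; postemergence treatments went onto plants 2 to 18 cm tall (1- to 4-leaf stage) grown in peat moss/vermiculite medium. After 14 to 21 days in a greenhouse, injury was rated visually against controls, 0 (no effect) to 100 (complete control).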

[2] = system: goosegrass (Eleusine indica); experiment: Test F pre-/postemergence: goosegrass; details: Preemergence
Method in brief: as §1

[3] = system: barnyardgrass (Echinochloa crus-galli); experiment: Test F pre-/postemergence: barnyardgrass
Method in brief: as §1

[4] = system: field bindweed (Convolvulus arvensis); experiment: Test F pre-/postemergence: field bindweed
Method in brief: as §1

[5] = system: nightshade (eastern black nightshade, Solanum ptycanthum); experiment: Test F pre-/postemergence: nightshade; details: Preemergence
Method in brief: as §1

Oilseed Rape = experiment: Test C preemergence: oilseed rape; details: 31 g ai/ha, scale 0 (no effect) to 100 (complete control)
[6] = Preemergence, 16 g ai/ha, scale 0 to 100, 0 no effect, 100 complete control
[7] = Preemergence, 31 g ai/ha, scale 0 to 100, 0 no effect, 100 complete control
[8] = Preemergence, 62 g ai/ha, scale 0 to 100
[9] = Preemergence, 125 g ai/ha, scale 0 to 100
[10] = Preemergence, 250 g ai/ha, scale 0 to 100
[11] = 16 g ai/ha, scale 0 to 100, 0 no effect, 100 complete control
[12] = 31 g ai/ha, scale 0 to 100, 0 no effect, 100 complete control
[13] = Postemergence, 250 g ai/ha, scale 0 to 100
[14] = Postemergence, 31 g ai/ha, scale 0 to 100
[15] = Postemergence, 125 g ai/ha, scale 0 to 100

SMILES | Plant response rating, Crabgrass, Brazil [1, 7] | Plant response rating, Crabgrass, Brazil [1, 9] | Plant response rating, Crabgrass, Brazil [1, 10] | Plant response rating, Goosegrass [2, 12] | Plant response rating, Goosegrass ([2]; 125 g ai/ha, scale 0 to 100) | Plant response rating, Goosegrass ([2]; 250 g ai/ha, scale 0 to 100) | Plant response rating, Barnyardgrass [3, 7] | Plant response rating, Barnyardgrass [3, 9] | Plant response rating, Barnyardgrass [3, 10] | Plant response rating, Field Bindweed [4, 7] | Plant response rating, Field Bindweed [4, 9] | Plant response rating, Field Bindweed [4, 10] | Plant response rating, Nightshade [5, 12] | Plant response rating, Nightshade ([5]; 125 g ai/ha, scale 0 to 100) | Plant response rating, Nightshade ([5]; 250 g ai/ha, scale 0 to 100) | Plant response rating, Oilseed Rape (Oilseed Rape) | also measured
CCc1nn(-c2ccc(F)c(F)c2)nc1Oc1ccnc(C(F)(F)F)c1 [Compound 171] | 98 | 100 | 100 | 80 | 100 | 100 | 5 | 80 | 100 | 0 | 5 | 5 | 0 | 5 | 5 | 0 | Plant response rating, Crabgrass, Brazil [1, 6]: 0; Plant response rating, Crabgrass, Brazil [1, 8]: 100; Plant response rating, Goosegrass [2, 11]: 70; Plant response rating, Goosegrass ([2]; 62 g ai/ha, scale 0 to 100): 100; Plant response rating, Barnyardgrass [3, 6]: 0; Plant response rating, Barnyardgrass [3, 8]: 5; Plant response rating, Field Bindweed [4, 6]: 0; Plant response rating, Field Bindweed [4, 8]: 0; Plant response rating, Nightshade [5, 11]: 0
CCCc1nn(-c2ccc(F)c(F)c2)nc1Oc1ccnc(C(F)(F)F)c1 [Compound 172] | 100 | 100 | 100 | 98 | 100 | 100 | 70 | 100 | 100 | 5 | 95 | 95 | 5 | 100 | 100 | 60 | Plant response rating, Crabgrass, Brazil [1, 13]: 90; Plant response rating, Crabgrass, Brazil [1, 14]: 50; Plant response rating, Crabgrass, Brazil [1, 15]: 70; Plant response rating, Barnyardgrass [3, 13]: 85; Plant response rating, Barnyardgrass [3, 14]: 20; Plant response rating, Barnyardgrass [3, 15]: 50; Plant response rating, Field Bindweed [4, 13]: 60; Plant response rating, Field Bindweed [4, 14]: 25; Plant response rating, Field Bindweed [4, 15]: 60
